Assay results from patent US20260272895A1, “METHODS AND KITS FOR DELIVERY OF COMPOUNDS INTO CELLS” (Yale University, priority 2023, published 2026).

Each compound was assayed on brain cell types (assay: In vivo two-photon imaging of mouse cortex after topical cortical administration of fluorophores). Conditions: cell type taking up the compound in vivo (Table 1).
Experimental: Briefly, animals are anaesthetized via intraperitoneal injections of ketamine/xylazine or via inhaled isoflurane. A region of the skull (3×3 mm) is gently removed with a high-speed drill and the underlying dura is removed. A small glass coverslip is placed over the skull to allow long term optical access for in vivo imaging. Labeling with fluorescent dyes is performed either via intravenous injections or topically application to the cortical surface for 20 min prior to glass cover placement. After recovery, in vivo images are acquired using a two-photon microscope (Bruker Technologies) equipped with a multimodal (fixed wavelength 1040 nm and tunable wavelength) InSight X3 two-photon laser (Spectra Physics) and 20× water immersion objective (Zeiss 1.0N.A.). The two-photon laser is appropriately tuned to excite particular fluorescent dyes and proteins as needed. In selected cases, following in vivo imaging, mice will be sacrificed and perfused for follow up immunohistochemistry and high-resolution confocal imaging (Leica SP8) to further confirm colocalization of dyes and cells expressing particular transporters.
One-month-old wild-type mice were anesthetized using a ketamine/xylazine solution at doses of 100 mg/kg and 10 mg/kg, respectively. The fur around the skull area was shaved, and buprenex (0.1 mg per kg) and carprofen (5 mg per kg) were administered subcutaneously. Mice were kept on a heating pad at 37° C., and anesthesia was periodically monitored. The skin was treated with povidone-iodine solution, followed by cleaning with ethanol, and eye ointment was applied. A small skin section was excised to expose the skull. Thinning of the skull was performed in a circular area, followed by delicately lifting of the remaining skull without harm to the underlying brain. Within the circular region, the dura was gently removed using fine forceps, and a 4 mm cover glass was softly pressed onto the brain surface and affixed to the skull. Fluorescent dyes were applied either through intravenous injections or topically to the cortical surface for 20 minutes before placing the glass cover. A customized head bar was attached either by adhesive (for acute imaging) or permanently implanted (using dental cement, for chronic imaging) onto the skull. Mice were imaged under a two-photon microscope (Prairie Technologies) with a mode-locked MaiTai tunable laser (Spectra Physics). Imaging was performed with a 20× water immersion objective (Zeiss, 1.0NA). Images were captured at depths up to 300 μm from the pial surface using excitation wavelengths ranging from 750 to 950 nm as previously described. Mice undergoing chronic imaging received a recovery period on a heating pad post-surgery, and buprenex (0.1 mg per kg) and carprofen (5 mg per kg) were administered for 3 days.
Batches of 10 compounds were applied through the craniotomy to the cortical surface before placing a cover glass window. No additional washings were performed, and the cover glass was placed, allowing up to 3 hours of imaging of the cortical surface with a two-photon microscope. Following imaging, the data were analyzed to identify potential patterns of cell-specific labeling. […] Positive batches underwent three additional rounds of imaging, with each batch being sequentially split, until a single compound displaying cell-type-specific labeling was identified. As these compounds were not initially purified, the labeling may have resulted from fluorescent byproducts of synthesis. Consequently, large-scale synthesis, purification and characterization (FIGS. 29A-29D) of the identified compounds were conducted. The purified compounds were subsequently retested using in vivo imaging to confirm cell type specificity.
It was reasoned that the best strategy to identify fluorophores with specific affinity to certain cell types and transport mechanisms would be by direct screening in the intact in vivo brain microenvironment. […]

SMILES	Target
O=[N+]([O-])c1ccc2c(c1)Oc1c3c4c(cc1=C2c1ccc(S(=O)(=O)O)cc1S(=O)(=O)[O-])CCC[N+]=4CCC3 [Compound 35, 2-(12-nitro-1,2,3,5,6,7-hexahydrochromeno[2,3-f]pyrido[3,2,1-ij]quinolin-4-ium-9-yl)-5-sulfobenzenesulfonate]	Astrocyte
O=[N+]([O-])c1ccc2c(-c3ccc(S(=O)(=O)O)cc3S(=O)(=O)[O-])c3ccc(Br)cc3[o+]c2c1 [Compound 28, 2-(3-bromo-6-nitroxanthylium-9-yl)-5-sulfobenzenesulfonate]	Endothelial
O=S(=O)([O-])c1cc(S(=O)(=O)O)ccc1C1=c2cc3c4c(c2Oc2cc(I)ccc21)CCC[N+]=4CCC3 [Compound 4, 2-(12-iodo-1,2,3,5,6,7-hexahydrochromeno[2,3-f]pyrido[3,2,1-ij]quinolin-4-ium-9-yl)-5-sulfobenzenesulfonate]	Endothelial
O=S(=O)([O-])c1cc(S(=O)(=O)O)ccc1C1=c2cc3c4c(c2Oc2c1ccc(Cl)c2F)CCC[N+]=4CCC3 [Compound 20, 2-(12-chloro-13-fluoro-1,2,3,5,6,7-hexahydrochromeno[2,3-f]pyrido[3,2,1-ij]quinolin-4-ium-9-yl)-5-sulfobenzenesulfonate]	Endothelial
O=S(=O)([O-])c1cc(S(=O)(=O)O)ccc1-c1c2ccc(Br)cc2[o+]c2ccc(-n3cncn3)cc12 [Compound 33, 2-(6-bromo-2-(1H-1,2,4-triazol-1-yl)xanthylium-9-yl)-5-sulfobenzenesulfonate]	Endothelial
O=S(=O)([O-])c1cc(S(=O)(=O)O)ccc1C1=c2cc3c4c(c2Oc2cc(Br)c(F)cc21)CCC[N+]=4CCC3 [Compound 14, 2-(12-bromo-11-fluoro-1,2,3,5,6,7-hexahydrochromeno[2,3-f]pyrido[3,2,1-ij]quinolin-4-ium-9-yl)-5-sulfobenzenesulfonate]	Endothelial
O=S(=O)([O-])c1cc(S(=O)(=O)O)ccc1C1=c2cc3c4c(c2Oc2c1ccc(F)c2Cl)CCC[N+]=4CCC3 [Compound 22, 2-(13-chloro-12-fluoro-1,2,3,5,6,7-hexahydrochromeno[2,3-f]pyrido[3,2,1-ij]quinolin-4-ium-9-yl)-5-sulfobenzenesulfonate]	Endothelial
O=S(=O)([O-])c1cc(S(=O)(=O)O)ccc1C1=c2cc3c4c(c2Oc2cc(Cl)ccc21)CCC[N+]=4CCC3 [Compound 3, 2-(12-chloro-1,2,3,5,6,7-hexahydrochromeno[2,3-f]pyrido[3,2,1-ij]quinolin-4-ium-9-yl)-5-sulfobenzenesulfonate]	Endothelial
O=S(=O)([O-])c1cc(S(=O)(=O)O)ccc1C1=c2cc3c4c(c2Oc2cc(Br)c(Cl)cc21)CCC[N+]=4CCC3 [Compound 15, 2-(12-bromo-11-chloro-1,2,3,5,6,7-hexahydrochromeno[2,3-f]pyrido[3,2,1-ij]quinolin-4-ium-9-yl)-5-sulfobenzenesulfonate]	Endothelial
O=S(=O)([O-])c1cc(S(=O)(=O)O)ccc1C1=c2cc3c4c(c2Oc2cc(F)c(Cl)cc21)CCC[N+]=4CCC3 [Compound 9, 2-(11-chloro-12-fluoro-1,2,3,5,6,7-hexahydrochromeno[2,3-f]pyrido[3,2,1-ij]quinolin-4-ium-9-yl)-5-sulfobenzenesulfonate]	Endothelial
CN(C)c1ccc2c(c1)Oc1c3c4c(cc1=C2c1ccc(S(=O)(=O)O)cc1S(=O)(=O)[O-])CCC[N+]=4CCC3 [Compound 36, 2-(12-(dimethylamino)-1,2,3,5,6,7-hexahydrochromeno[2,3-f]pyrido[3,2,1-ij]quinolin-4-ium-9-yl)-5-sulfobenzenesulfonate]	Astrocyte
CN(C)c1ccc2c(-c3ccc(S(=O)(=O)O)cc3S(=O)(=O)[O-])c3ccc(Br)cc3[o+]c2c1 [Compound 42, 2-(3-bromo-6-(dimethylamino)xanthylium-9-yl)-5-sulfobenzenesulfonate]	Endothelial
Cc1ccc2c(-c3ccc(S(=O)(=O)O)cc3S(=O)(=O)[O-])c3cc4c5c(c3[o+]c2c1)CCCN5CCC4 [Compound 40, 2-(12-methyl-2,3,6,7-tetrahydro-1H,5H-chromeno[2,3-f]pyrido[3,2,1-ij]quinolin-14-ium-9-yl)-5-sulfobenzenesulfonate]	Endothelial
O=S(=O)([O-])c1cc(S(=O)(=O)O)ccc1C1=c2cc3c4c(c2Oc2cc(Cl)c(Cl)cc21)CCC[N+]=4CCC3 [Compound 12, 2-(11,12-dichloro-1,2,3,5,6,7-hexahydrochromeno[2,3-f]pyrido[3,2,1-ij]quinolin-4-ium-9-yl)-5-sulfobenzenesulfonate]	Endothelial
O=S(=O)([O-])c1cc(S(=O)(=O)O)ccc1-c1c2ccc(Br)cc2[o+]c2cc(N3CCOCC3)ccc12 [Compound 30, 2-(3-bromo-6-morpholinoxanthylium-9-yl)-5-sulfobenzenesulfonate]	Endothelial
O=S(=O)([O-])c1cc(S(=O)(=O)O)ccc1C1=c2cc3c4c(c2Oc2c(Br)cccc21)CCC[N+]=4CCC3 [Compound 5, 2-(13-bromo-1,2,3,5,6,7-hexahydrochromeno[2,3-f]pyrido[3,2,1-ij]quinolin-4-ium-9-yl)-5-sulfobenzenesulfonate]	Endothelial
O=S(=O)([O-])c1cc(S(=O)(=O)O)ccc1C1=c2cc3c4c(c2Oc2c1ccc(Cl)c2Cl)CCC[N+]=4CCC3 [Compound 23, 2-(12,13-dichloro-1,2,3,5,6,7-hexahydrochromeno[2,3-f]pyrido[3,2,1-ij]quinolin-4-ium-9-yl)-5-sulfobenzenesulfonate]	Endothelial
CCN(CC)c1ccc2c(-c3ccc(S(=O)(=O)O)cc3S(=O)(=O)[O-])c3ccc(N(CC)CC)cc3[o+]c2c1 [Compound 46, 2-(3,6-bis(diethylamino)xanthylium-9-yl)-5-sulfobenzenesulfonate]	Endothelial
O=S(=O)([O-])c1cc(S(=O)(=O)O)ccc1C1=c2cc3c4c(c2Oc2ccc(Br)cc21)CCC[N+]=4CCC3 [Compound 6, 2-(11-bromo-1,2,3,5,6,7-hexahydrochromeno[2,3-f]pyrido[3,2,1-ij]quinolin-4-ium-9-yl)-5-sulfobenzenesulfonate]	Endothelial
O=S(=O)([O-])c1cc(S(=O)(=O)O)ccc1-c1c2ccc(Br)cc2[o+]c2ccc(S(=O)(=O)O)cc12 [Compound 32, 2-(6-bromo-2-sulfoxanthylium-9-yl)-5-sulfobenzenesulfonate]	Endothelial
CCN(CC)c1ccc2c(-c3ccc(S(=O)(=O)O)cc3S(=O)(=O)[O-])c3cc(Br)ccc3[o+]c2c1 [Compound 39, 2-(2-bromo-6-(diethylamino)xanthylium-9-yl)-5-sulfobenzenesulfonate]	Endothelial

Same assay, conditions: topical cortical application

SMILES	endothelial cell labeling/uptake after topical application to the brain
O=S(=O)([O-])c1cc(S(=O)(=O)O)ccc1C1=c2cc3c4c(c2Oc2cc(I)ccc21)CCC[N+]=4CCC3 [Compound 4, 2-(12-iodo-1,2,3,5,6,7-hexahydrochromeno[2,3-f]pyrido[3,2,1-ij]quinolin-4-ium-9-yl)-5-sulfobenzenesulfonate]	selectively labeling endothelial cells in vivo
CN(Cc1cnc2nc(NS(=O)(=O)c3ccc(C4=c5cc6c7c(c5Oc5cc(Br)ccc54)CCC[N+]=7CCC6)c(S(=O)(=O)[O-])c3)nc(N)c2n1)c1ccc(C(=O)N[C@@H](CCC(=O)O)C(=O)O)cc1 [52a/52b]	very strong

Same assay, conditions: two-photon images of mouse cortex; route and concentration not stated

SMILES	in vivo endothelial labeling/uptake
CCN(CC)c1ccc2c(-c3ccc(S(=O)(=O)NCCOCCOCCOCCOCCOCCOCCOCCOCCOCCOCCOCCOCCOCCOCCOCCOCCOCCOCCOCCOCCOCCOCCOCCOCCOCCOCCOCCOCCOCCOCCOCCOCCOCCOCCOCCOCCOCCOCCOCCOCCOCCOCCOCCOCCOC)cc3S(=O)(=O)[O-])c3ccc(N(CC)CC)cc3[o+]c2c1 [Compound 57]	highly specific in vivo endothelial labeling
CCN(CC)c1ccc2c(-c3ccc(S(=O)(=O)NCCOCCOCCOCCOCCOCCOCCOCCOCCOCCOCCOCCOCCOCCOCCOCCOCCOCCOCCOCCOCCOCCOC)cc3S(=O)(=O)[O-])c3ccc(N(CC)CC)cc3[o+]c2c1 [Compound 56]	highly specific in vivo endothelial labeling
CN(C)c1ccc2c(-c3ccc(S(=O)(=O)NCCNC(=O)OC(C)(C)C)cc3S(=O)(=O)[O-])c3ccc(N(C)C)cc3[o+]c2c1 [Compound 55, 2-(3,6-bis(dimethylamino)xanthylium-9-yl)-5-(N-(2-((tert-butoxycarbonyl)amino)ethyl)sulfamoyl)benzenesulfonate]	robust endothelial cell body uptake
